# Laboratory results published in patent US20110059869A1, “Method for Increasing Enzymatic Reactivity” (RIKEN, priority 2008, published 2011).
# Key:
# restriction enzyme PstI [1] = assay: PstI cleavage reaction on a horizontal plate surface (DNA fragment III); format: biochemical; conditions: horizontal plates, 0.6 M trehalose vs none
# Description: Biotin-labeled DNA fragment III (Seq. ID No. 6, Scheme 4) was cleaved at the restriction enzyme PstI site on a horizontal streptavidin coated plate surface and the 104 by DNA fragment released was examined. To the DNA fragment III (500 ng) was admixed an equal volume of 2× binding buffer. The mixture was added to the wells of a plate that had been washed with 1× binding buffer and stirred and adsorbed while being gently vibrated for 15 minutes at room temperature. The supernatant was removed, washed three times with 1× binding buffer, and washed once with 1× PstI buffer. Two types of reaction solution (1× PstI buffer, 1× BSA restriction enzyme 40 units) were prepared: a trehalose (+) system to which D(+)-trehalose was added to a final concentration of 0.6 M, and a trehalose (−) system to which no trehalose was added. Each of the reaction solutions was added to wells that had been washed, and then reacted for three hours at 37° C. Cleavage was conducted with restriction enzyme. The supernatant containing the DNA fragments that had been released was recovered, reacted with proteinase K, treated with phenol chloroform, and precipitated from ethanol. The precipitate of DNA fragments obtained was dissolved in 1× TE (pH 7.5) and analyzed with Bioanalyzer DNA 1000 assay (Agilent Technologies).
# [2] = State of streptavidin bead reaction solution during enzymatic reaction; format: physicochemical; conditions: 0.6 M additive; extended / three hours restriction enzyme reaction
# Excerpt: Thus, with no nonuniformity in enzymatic activity, the various enzymatic reactions were promoted and the quantity of target DNA recovered increased.
# This was attributed to characteristics such as the viscosity and diffusing effect of trehalose or sorbitol.
# restriction enzyme PstI [3] = assay: PstI cleavage reaction on a spherical bead surface (DNA fragment III); format: biochemical; conditions: DNA adsorbed to beads, 0.6 M trehalose vs none
# Description: Biotin-labeled DNA fragment III (Seq. ID No. 6, Scheme 4) was cleaved at the restriction enzyme PstI site on the surface of streptavidin beads and the 104 by DNA fragment released was examined. DNA fragment III (500 ng) and 2× binding buffer were admixed in equal volume quantities, a solution of beads suspended in 1× binding buffer was added, and the mixture was gently stirred with top to bottom inversion and rotation for 15 minutes at room temperature to induce adsorption. The beads onto which the sample had adsorbed were recovered with a magnetic stand, washed three times with 1× binding buffer, and washed once with 1× PstI buffer. Two types of reaction solution (1× PstI buffer, 1× BSA restriction enzyme 40 units) were prepared: a trehalose (+) system to which D(+)-trehalose was added to a final concentration of 0.6 M, and a trehalose (−) system to which no trehalose was added. Each of the reaction solutions was admixed to beads that had been washed and the mixtures were reacted for three hours at 37° C. The beads were recovered with the magnetic stand and cleaved with restriction enzyme. […] The precipitate of DNA fragments obtained was dissolved in 1× TE (pH 7.5) and analyzed with Bioanalyzer DNA 1000 assay (Agilent Technologies).
# [4] = tested on: sequencing enzyme reaction solution of a Genome Sequencer FLX system; assay: Sequencing reaction of the 454 sequencing system (Genome Sequencer FLX); format: biochemical; conditions: trehalose 0.15 M and 0.3 M in sequencing reaction vs none
# Description: In the 454 sequencing system described in 11 above, trehalose was added to the reaction solution to a final concentration of 0.3 M, the sequencing reaction was conducted, and the effect on the sequencing level was observed.
# D(+)-trehalose was added to the sequencing enzyme reaction solution of a Genome Sequencer FLX system and the effects were measured. Two experiments were conducted with final D(+)-trehalose concentrations of 0.15 M and 0.3 M. The ratio of the read length to the decodable sample was employed for comparison.
# The D(+)-trehalose employed was D(+)-trehalose dihydrate (201-02253 reagent grade) (Wako). A GS LR 25 Sequencing Kit (502906) was employed for sequencing with the Genome Sequencer FLX system. The samples employed here were a PolyA minus full length cDNA library prepared in-house and human genome prepared according to the manufacturer's protocol.
# The D(+)-trehalose dihydrate (201-02253 reagent grade) (Wako) was added in the following proportion to the Buffer CB among the reagents contained in the GS LR 25 Sequencing Kit (502906).
# The mixture was stirred with a magnetic stirrer. Once dissolution had been visually confirmed, the mixed solution was passed through a filter (filter pore system 0.22 micrometer). Following filtration, precisely the required 2× 1000 mL quantities were collected from the mixed solution. […]
# restriction enzyme PstI [5] = assay: PstI cleavage of DNA fragments I, II, III in a uniform liquid phase system; format: biochemical; conditions: 0.6 M trehalose present or not, three hours at 37° C.
# Description: In the same manner as in 7 above, the three biotin-labeled DNA fractions I, II, and III (Seq. ID Nos. 4 to 6) were each cleaved at the restriction enzyme PstI site and the DNA fragments of various sizes that were released were detected. Two types of reaction solution (1× PstI buffer, 1× BSA, restriction enzyme 40 units) were prepared: a trehalose (+) system with a final D(+)-trehalose concentration of 0.6 M, and a trehalose (−) system to which no trehalose was added. Each of the reaction solutions was admixed and reacted for three hours at 37° C. Cleavage was conducted with restriction enzyme. The DNA fragments of various sizes that were released were reacted with proteinase K, treated with phenol chloroform, and precipitated from ethanol. The precipitate of DNA fragments obtained was dissolved in 1× TE (pH 7.5) and analyzed with Bioanalyzer DNA 1000 assay (Agilent Technologies) (FIGS. 15 and 16).
# DNA polymerase = assay: 454 sequencing system, emulsion PCR on beads; format: biochemical
# Description: In the 454 sequencing system (Scheme 10), a DNA template was adsorbed onto spherical beads, immobilized, and subjected to enveloped amplification in a water-in-oil emulsion (emulsion PCR). Accordingly, the change in the sequencing analysis level when trehalose was added in emulsion PCR was examined.
# In emulsion PCR, DNA is bonded by complementarily interaction with oligoprimer immobilized on beads and enveloped in a water-in-oil emulsion to form microreactors each comprised of a single bead and a single DNA fragment. An amplification reaction based on the DNA polymerase results in the amplification of each DNA fragment into several million copies per bead. Trehalose was added to a final concentration of 0.6 M to the reaction solution and the amplification reaction was conducted to examine the effect on the sequence analysis results (Scheme 11).
# The samples employed were DNA fragments that had been obtained by PCR amplification of cDNA obtained by reverse transcription of short RNA (FIG. 11). The results obtained by this reaction are shown in FIGS. 12, 13, and 14, as well as in Table 2.
# In the 454 sequencing system described in 11 above, trehalose was added to a final concentration of […] to the reaction solution, an amplification reaction was conducted, and the effect on the level of sequencing was examined.
# [6] = 0.3 M trehalose in emulsion PCR vs none
# [7] = 0.6 M trehalose in emulsion PCR
# [8] = trehalose 0.6 M in emulsion PCR, Region 2
smiles,measurement,setting,value
"OC[C@H]1O[C@H](O[C@H]2O[C@H](CO)[C@@H](O)[C@H](O)[C@H]2O)[C@H](O)[C@@H](O)[C@@H]1O [trehalose, D(+)-trehalose]",yield of released DNA fragment,restriction enzyme PstI [1],higher yield
same,uniformity of beads in the reaction solution,[2],maintaining better uniformity in the reaction solution
same,yield of released DNA fragment,restriction enzyme PstI [3],higher yield
same,number of sequences,[4],increased the number of sequences
same,quantity of the released DNA fragments recovered,restriction enzyme PstI [5],no change
same,long fragments (sequence length),DNA polymerase; [6],increase in long fragments
same,number of sequences,DNA polymerase; [6],increased the number of sequences
same,short fragments (sequence length),DNA polymerase; [6],reduction in short fragments
same,DNA amplification wells,DNA polymerase; 0.6 M trehalose (+) compared to trehalose (−),increasing the DNA amplification wells
same,number of sequences and size of the regions that were decoded,DNA polymerase; 0.6 M trehalose (+) relative to trehalose (−),increasing the number of sequences and the size of the regions that were decoded
same,"number of sequences read in sample DNA, increase relative to no trehalose",DNA polymerase; [7],about 1.6 fold
same,target regions contained in DNA fragments (tags) analyzed,DNA polymerase; [7],more target regions were contained
same,Keypass Wells,DNA polymerase; [8],"341,546"
same,Passed Filter Wells,DNA polymerase; [8],"207,398"
same,Raw Wells,DNA polymerase; [8],"364,898"
